Source: patent US4191808A, “Method of measuring dipeptidyl-amino-peptidase activity” (Ajinomoto Co., Inc., priority 1975, dated 1980)
Peptide text beside a SMILES is read from it. * marks the point of attachment. pNA = O=[N+]([O-])c1ccc(N*)cc1

Experiments:
[1] = biological target: T1, X-prolyl dipeptidyl-aminopeptidase in human serum (Homo sapiens, UniProt P27487); test: Hydrolysis of phenylazo substrates by human serum, photometry at 493 nm / 532 nm; assay type: biochemical
T1 construct: Even if crude enzyme such as human serum is used as enzyme source, the activity is accurately measured; from tissue; host or cells: human serum (normal subjects and patients)
T1 sequence (P27487 39-766 limits assumed): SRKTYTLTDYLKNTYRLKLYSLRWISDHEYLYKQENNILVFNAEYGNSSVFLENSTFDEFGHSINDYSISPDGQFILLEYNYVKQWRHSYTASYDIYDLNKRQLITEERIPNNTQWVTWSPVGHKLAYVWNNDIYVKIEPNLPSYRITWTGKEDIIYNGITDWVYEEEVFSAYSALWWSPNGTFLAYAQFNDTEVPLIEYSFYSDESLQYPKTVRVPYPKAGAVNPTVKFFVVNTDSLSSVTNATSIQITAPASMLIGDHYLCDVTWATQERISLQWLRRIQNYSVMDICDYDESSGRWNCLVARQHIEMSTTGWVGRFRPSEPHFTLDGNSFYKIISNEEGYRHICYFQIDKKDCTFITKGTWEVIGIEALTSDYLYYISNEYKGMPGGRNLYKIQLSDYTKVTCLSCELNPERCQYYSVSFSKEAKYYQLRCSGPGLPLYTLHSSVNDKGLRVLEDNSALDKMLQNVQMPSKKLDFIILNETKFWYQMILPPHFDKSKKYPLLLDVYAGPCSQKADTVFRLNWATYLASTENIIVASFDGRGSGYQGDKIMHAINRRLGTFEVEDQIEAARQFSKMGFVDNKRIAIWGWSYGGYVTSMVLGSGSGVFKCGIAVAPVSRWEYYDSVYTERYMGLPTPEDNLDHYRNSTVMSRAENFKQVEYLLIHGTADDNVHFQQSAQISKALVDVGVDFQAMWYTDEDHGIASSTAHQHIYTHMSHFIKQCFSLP
Description: 3 mM of substrate solutions were prepared as in Example 22, glycyl-L-proline p-phenylazoanilide tosylate and glycyl-L-proline 4-phenylazo-1-naphthylamide being used as substrates.
The assay of enzyme activity was carried out by adding 0.05 ml of human serum to a mixture of 0.5 ml […] glycine-NaOH buffer (pH 8.7) and 0.5 ml substrate solution in the experimental tube, incubating the resulting solution at 37° C. for 30 minutes, and then stopping the reaction with 3.0 ml 1N-hydrochloric acid. The absorbances were A 493 nm=0.18 for glycyl-L-proline p-phenylazoanilide and A 532 nm=0.80 for glycyl-L-proline 4-phenylazo-1-naphthylamide.
The rate of hydrolysis of glycyl-L-proline p-phenylazoanilide was measured as in Example 26, human serum being used as enzyme. However, the blank tube contained water instead of the enzyme solution in the experimental tube, and the standard tube contained 3 mM p-phenylazo-aniline solution instead of the enzyme solution in the experimental tube.

human serum = test: Paper chromatography of products after incubation with human serum; assay type: biochemical; conditions: incubation 30 minutes
Description: The products obtained after incubating various X-L-proline p-nitroanilides with purified human submaxillary enzyme or human serum for 30 minutes as in Example 22 were examined by paper chromatography, the residues of glycine, L-alanine, L-glutamic acid, L-aspartic acid, L-lysine and L-argine being used as the N-terminal amino acids (X).
When the rate of hydrolysis of L-proline p-nitroanilide by human serum was examined, it was observed only 0.7% of hydrolysis of glycyl-L-proline p-nitroanilide.

[2] = biological target: T1, X-prolyl dipeptidyl-aminopeptidase in human serum; test: Direct photometric assay of substrate hydrolysis (p-nitroaniline liberated, 385 nm) with human serum as enzyme source; assay type: biochemical; conditions: for Enzyme activity (μmole/min/1 serum ± S.E.): 3 cases; for Amount of p-nitroaniline formed: 37° C., pH 8.7, 0.05 ml human serum; for Enzyme activity average ± S. E.: normal human sera
Description: The relation between the incubation time and the amount of substrate hydrolyzed was examined, glycyl-L-proline p-nitroanilide and human serum being used as substrate and enzyme source, respectively, and the assay of the substrate hydrolyzed was carried out by the following direct photometric method.
Glycyl-L-proline p-nitroanilide tosylate was dissolved in 2% non-ionic detergent (Nikkol NP-10; Nikko Chemicals, Osaka, Japan) aqueous solution in a concentration of 3 mM to prepare the substrate solution. The following four tubes were prepared:
(1) the experimental tube contained 0.5 ml of 0.15 M glycine-NaOH buffer (pH 8.7), 0.5 ml of the substrate solution, and 0.05 ml of human serum
(2) the blank tube contained 0.5 ml of the 0.15 M glycine-NaOH buffer, 0.5 ml of the substrate solution and 0.05 ml of water.
(3) the standard tube contained 0.5 ml of the buffer, 0.5 ml of the substrate and 0.05 ml of 3 mM p-nitroaniline aqueous solution.
(4) the control tube contained 0.5 ml of the buffer and 0.5 ml of the substrate.
All tubes were incubated at 37° C. for the periods listed in Table 1, and the reaction was stopped by the addition of 3.0 ml of 1M acetate buffer (pH 4.2) to every tube. To the control tube, 0.05 ml of the human serum was added after stopping the reaction. A photometer was adjusted to zero with the blank, and the absorbances of the experimental (E), control (C), and standard (S) were read at 385 nm in a cuvette with 1 cm light path. p-Nitroaniline liberated by the enzyme reaction was calculated by the equation [formula]
(§1) 3mM substrate solutions were prepared as in Example 22, various dipeptide derivatives or salts thereof being used as substrates. The relative enzyme activities toward various substrates, and the rates and optimum pHs of hydrolysis of various substrates with the enzyme were measured as in Example 22.
(§2) ^c Activities were measured at pH 7.0 in 0.15 M Trismaleate buffer or
(§3) at pH 8.7 in 0.15 M glycineNaOH buffer. The values are the mean of
The activity of X-prolyl dipeptidyl-aminopeptidase was measured as in Example 22, glycyl-L-proline p-nitroanilide and 88 normal human sera being used as substrate and enzyme, respectively.
The activity of X-prolyl dipeptidyl-aminopeptidase was measured as in Example 22, glycyl-L-proline p-nitroanilide and human sera from patients being used as substrate and enzyme sources, respectively.
The activity of X-prolyl dipeptidyl-aminopeptidase was measured as in Example 22, various X-L-prolyl p-nitroanilides, and human sera from patients being used as substrates and enzyme sources, respectively.

[3] = tested on: purified human submaxillary enzyme (X-prolyl dipeptidyl-aminopeptidase); test: Direct photometric assay of substrate hydrolysis with purified human submaxillary enzyme; assay type: biochemical
Description: as §1
^a Activities were measured in 0.15 M Trismaleate buffer at pH 5.6-8.
and in 0.15 M glycineNaOH buffer at pH 8.2-9.4, purified human
submaxillary enzyme being used. For Lalanyl-L-proline pnitroanilide,
amidiol buffer were used instead of glycine buffer, since glycine buffer
interfered the photometry at pH 9-10.
^b Km values were measured at 7.0 in Trismaleate buffer, purified
human submaxillary enzyme being used. The values are the mean of duplicat
as §2, §3
^d The purified enzyme was obtained by the following method; The
enzyme was solubilized from the microsomal fraction by autodigestion, and
subsequently purified by (NH4)2 SO4 fractionation followed
by Sephadex G200 chromatography.

[4] = Stability of aqueous substrate solution; assay type: physicochemical; conditions: at the optimum pH, 4° C.
Description: The enzyme activity is measured without difficulty by using the dipeptide derivatives or salts thereof as substrates. An aqueous solution of X-L-proline-Y or salt thereof having a suitable concentration is first prepared. Since it requires a fairly long time to dissolve the substrate in water, it is preferred to use suitable substances capable of increasing the dissolution rate such as non-ionic detergents, acids and alcohols, or to use the substrate in the porous form which may be prepared by freeze-drying or the like. The porous substrate is most convenient for routine use for assay of the enzyme. The optimum pH of the substrate solution varies depending on the kind of substrate employed, but is easily determined by experiments. The optimum pH is usually in the range of from 6 to 9, preferably of from 7.5 to 8.9.

[5] = 0.05 ml human serum, pH 8.7, 37° C., 30 minutes

NCC(=O)N1CCC[C@H]1C(=O)Nc1ccc(N=Nc2ccccc2)c2ccccc12 [Glycyl-L-proline 4-phenylazo-1-naphthyl amide]
absorbance A 532 nm [1, 5]: 0.80

NCC(=O)N1CCC[C@H]1C(=O)O [Glycyl-L-proline] (H-Gly-Pro-OH)
products identified by paper chromatography / hydrolysis by human serum (human serum): hydrolyzed to glycine and L-proline

NCC(=O)N1CCC[C@H]1C(=O)Nc1ccc([N+](=O)[O-])cc1 [glycyl-L-proline p-nitroanilide, Glycyl-L-proline p-nitroanilide] (H-Gly-Pro-pNA)
Enzyme activity ([2]; human sera from patients, Acute lymphocytic leukemia, 22 cases): 38.8 ± 11.9 μmole/min/1 serum
Enzyme activity ([2]; human sera from patients, Early essential hypertension, 20 cases): 80.94 ± 3.87 μmole/min/1 serum
Enzyme activity ([2]; human sera from patients, Fixed essential hypertension, 17 cases): 89.29 ± 3.69 μmole/min/1 serum
Enzyme activity (μmole/min/1 serum ± S.E.) ([2]; human sera from patients, Gastric Cancer): 25.3 ± 3.0 μmole/min/1 serum
Enzyme activity ([2]; human sera from patients, Gastric Cancer, 37 cases): 38.4 ± 2.3 μmole/min/1 serum
Enzyme activity (μmole/min/1 serum ± S.E.) ([2]; human sera from patients, Hepatitis): 143.0 ± 31.8 μmole/min/1 serum
Enzyme activity ([2]; human sera from patients, Hepatitis, 23 cases): 75.8 ± 28.5 μmole/min/1 serum
Enzyme activity ([2]; human sera from patients, Hodgkin's disease, 15 cases): 31.0 ± 9.5 μmole/min/1 serum
Enzyme activity ([2]; human sera from patients, Lymphosarcoma, 11 cases): 36.3 ± 5.6 μmole/min/1 serum
Enzyme activity ([2]; human sera from patients, Pulmonary Cancer, 17 cases): 39.8 ± 2.6 μmole/min/1 serum
Enzyme activity (μmole/min/1 serum ± S.E.) ([2]; human sera, Normal (control)): 50.4 ± 15.0 μmole/min/1 serum
Enzyme activity ([2]; human sera, Normal (control), 88 cases): 54.9 ± 1.5 μmole/min/1 serum
Relative enzyme activity (%) Human serum pH 7.0 ([2]; human serum, pH 7.0, 0.15 M Tris-maleate buffer, glycyl-L-proline p-nitroanilide = 100): 100%
Relative enzyme activity (%) Human serum pH 8.7 ([2]; human serum, pH 8.7, 0.15 M glycine-NaOH buffer, glycyl-L-proline p-nitroanilide = 100): 100%
Amount of p-nitroaniline formed ([2]; incubation time 15 min): 18.11 n mole
Amount of p-nitroaniline formed ([2]; incubation time 30 min): 35.43 n mole
Amount of p-nitroaniline formed ([2]; incubation time 60 min): 71.65 n mole
Amount of p-nitroaniline formed ([2]; incubation time 90 min): 100.79 n mole
Amount of p-nitroaniline formed ([2]; incubation time 120 min): 135.43 n mole
Enzyme activity average ± S. E. ([2]; Older Female, 17 subjects, 48-76 years): 58.16 ± 4.37 μ mole/min/1 serum
Enzyme activity average ± S. E. ([2]; Older Male, 29 subjects, 41-81 years): 53.18 ± 2.43 μ mole/min/1 serum
Enzyme activity average ± S. E. ([2]; Older, 46 subjects, 41-81 years): 55.04 ± 2.23 μ mole/min/1 serum
Enzyme activity average ± S. E. ([2]; Total Female, 35 subjects, 20-76 years): 52.49 ± 2.47 μ mole/min/1 serum
Enzyme activity average ± S. E. ([2]; Total Male, 53 subjects, 15-81 years): 56.30 ± 1.90 μ mole/min/1 serum
Enzyme activity average ± S. E. ([2]; Total, 88 subjects, 15-81 years): 54.88 ± 1.50 μ mole/min/1 serum
Enzyme activity average ± S. E. ([2]; Younger Female, 18 subjects, 20-40 years): 47.59 ± 2.07 μ mole/min/1 serum
Enzyme activity average ± S. E. ([2]; Younger Male, 24 subjects, 15-40 years): 60.10 ± 2.84 μ mole/min/1 serum
Enzyme activity average ± S. E. ([2]; Younger, 42 subjects, 15-40 years): 54.76 ± 2.07 μ mole/min/1 serum
Optimum pH ([3]; Tris-maleate, glycine-NaOH or amidiol buffer): 8.5-8.7
Relative enzyme activity (%) Purified human submaxillary enzyme pH 7.0 ([3]; pH 7.0, 0.15 M Tris-maleate buffer, glycyl-L-proline p-nitroanilide = 100): 100%
Km ([3]; pH 7.0, Tris-maleate buffer, mean of duplicate experiments): 330 µM
storage of substrate solution without appreciable degradation [4]: more than a week
products identified by paper chromatography / hydrolysis by human serum (human serum): glycyl-L-proline, glycine, L-proline and p-nitroaniline were identified

Cc1ccc(S(=O)(=O)O)cc1.NCC(=O)N1CCC[C@H]1C(=O)Nc1ccc(N=Nc2ccccc2)cc1 [glycyl-L-proline p-phenylazoanilide, Glycyl-L-proline p-phenylazoanilide tosylate]
absorbance A 493 nm [1, 5]: 0.18
rate of hydrolysis ([1]; human serum as enzyme, as in Example 26): 18.7 n mole/min./l serum
